Series [1] can be described thus: Glucuronidation in pooled human intestinal microsomes. The format is in vitro ADME. As to conditions: intestinal microsomes 1 mg protein/mL, 10 μmol/L, 60 minutes, n = 1. On the procedure:
Ataluren at 10 μmol/L, was incubated (n = 1) with pooled human intestinal, lung, and kidney microsomes (1 mg protein/mL, preactivated with alamethicin) to evaluate if ataluren‐O‐1β‐acyl glucuronide will be formed in these extrahepatic tissues. Incubation mixtures and procedures were essentially the same as the above. The supernatant fractions were analyzed by LC‐MS/MS to quantify the formation of ataluren‐O‐1β‐acyl glucuronide and the loss of ataluren. Detailed LC‐MS/MS conditions are summarized in LC‐MS/MS Analysis section. […] The ataluren acyl glucuronide formation rate after 60 minutes incubation was calculated using the amount of metabolite formed (pmol) divided by the protein amount in the incubation sample ([…]) and the incubation time (60 minutes).
Quantification of ataluren loss and ataluren‐O‐1β‐acyl glucuronide formation was carried out with an LC‐MS/MS system, which consisted of two Shimadzu LC‐10ADvp pumps, a SPD10‐AVP UV/Vis detector, a Shimadzu SILHTA autosampler, a Shimadzu DGU‐14A degasser, and a Sciex API 4000 QTRAP mass spectrometer equipped with a Turbo Ionspray ionization source that operated in positive ionization mode. […] Ion transitions monitored were at m/z 285 → m/z 123 for ataluren, m/z 461 → m/z 285 for ataluren acyl glucuronide, and m/z 289 → m/z 127 for ataluren‐D4 (internal standard), respectively.

For a further series, the system named is CYP2C9. Briefly: CYP induction in primary human hepatocytes: CYP2C9. The format is in vitro ADME. As to conditions: male, 48 h. The method, then: Human hepatocytes isolated from three Caucasian males were transferred to 48‐well collagen‐coated plates at 0.14 × 10^6 cells/well in planting media for attachment. After attachment, planting media was replaced with sandwich media and the cells were incubated until clusters were established. […] The incubation solutions were aspirated and replaced with freshly prepared incubation solutions containing ataluren for an additional 24 hours. […] The incubation solutions were then aspirated and 150 µL of K‐H buffer containing CYP substrates were added. The hepatocytes were incubated for 30 minutes for CYP2C8 (10 µmol/L amodiaquine), 1 hour for CYP3A4 (125 µmol/L testosterone), and 4 hours for CYPs 1A2 (100 µmol/L phenacetin), 2A6 (100 µmol/L coumarin), 2B6 (150 µmol/L bupropion), 2C9 (50 µmol/L tolbutamide), 2C19 (100 µmol/L S‐mephenytoin), and 2E1 (300 µmol/L chlorzoxazone) activity assays. The reactions were stopped by the addition of 0.15 mL of ice‐cold methanol except that coumarin‐treated cells were incubated with β‐glucuronidase and aryl sulfatase for additional 1 hour to free 7‐hydroxycoumarin before the addition of 0.2 mL of ice‐cold methanol. Metabolite formation in incubations with test compounds and control inhibitors was assessed with validated LC‐MS/MS methods for each of the reaction products as described in Table S2. Enzymatic activity for each CYP was calculated using the absolute amount of metabolite formed (pmol) divided by hepatocytes in the incubation (million cells) and the incubation time (minute). The relative fold induction in enzymatic activity was calculated by comparing the rate of metabolite formation for treatment groups to that of the solvent control group (reported as vehicle control%) or positive control group (reported as positive control%).

Series [2] can be described thus: Steady-state plasma Cmax in DMD patients. The format is in vivo, human.
Series [3] can be described thus: Metabolism of [14C]-ataluren in pooled human liver microsomes with cofactors. The format is in vitro ADME. On the procedure:
[^14C]‐Ataluren at 1, 10, and 100 μmol/L was incubated (n = 3) with pooled HLM (1 mg protein/mL) at 37 ± 1°C in 0.2 mL incubation mixtures (final volume) containing potassium phosphate buffer (50 mmol/L, pH 7.4), MgCl2 (3 mmol/L), and EDTA (1 mmol/L) with and without cofactors, NADPH‐generating system (1 mmol/L NADP, 5 mmol/L glucose‐6‐phosphate, and 1 unit/mL glucose‐6‐phosphate dehydrogenase), and uridine diphosphate glucuronic acid (UDPGA, 8 mmol/L). [^14C]‐Ataluren was added in DMSO (final percent of 0.1% v/v). Reactions were started by the addition of the cofactors and terminated by the addition of stop reagent (0.2 mL of 2% v/v formic acid/acetonitrile) at 0, 60, and 120 minutes. Precipitated protein was removed by centrifugation (920 g for 10 minutes at 10°C). The supernatant fractions were analyzed by LC/RAM/MS to determine percent loss of substrate in incubations. Detailed LC/MS conditions are summarized in LC‐MS/MS Analysis section. After chromatographic separation, the detected radioactive peaks were integrated, and their identity was confirmed using mass spectrometry analysis. [^14C]‐ataluren remaining at specific timepoint after incubation was compared with the amount of [^14C]‐ataluren at 0 minutes incubation sample in the same matrix (eg, with or without cofactors etc) to calculate the percentage of ataluren remaining. The percentage of [^14C]‐ataluren acyl glucuronide formation at specific timepoint after incubation was calculated using the amount of metabolite formed over the total radioactivity in each sample.
[^14C]‐Ataluren and metabolites were monitored by LC/RAM/MS system, which consisted of two Shimadzu LC‐10ATvp pumps (Shimadzu Scientific Instruments, Columbia, MD, USA), a Shimadzu SIL‐5000 autosampler, an IN/US Systems β‐RAM radiometric detector (LabLogic), and a Sciex API 4000 QTRAP triple quadrupole mass spectrometer (Sciex) equipped with a Turbo Ionspray ionization source operated in negative ionization mode. The Ionspray voltage was set at 4.5 kV with the source temperature at 450 °C. MS/MS was carried out with nitrogen as the collision gas. The column used was a Phenomenex Luna C8, 3 μm, 150 × 3.0 mm column (Phenomenex, Torrance, CA, USA). Mobile phase A consisted of 0.2% formic acid in water and mobile phase B consisted of 0.2% formic acid in acetonitrile. The flow rate was 0.50 mL/min with gradient program as follows: hold isocratic at 5% B for 2 minutes; linear gradient from 5% B to 60% B in 20 minutes; linear gradient from 60% B to 95% B in 5 minutes and hold isocratic at 95% B for 2 minutes; linear gradient from 95% B to 5% B in 0.5 minutes and hold isocratic at […] for 3.5 minutes.

The record followed here is paper PMC7083565, “In vitro metabolism, reaction phenotyping, enzyme kinetics, CYP inhibition and induction potential of ataluren” (Pharmacology Research & Perspectives, 2020).

`O=C(O)c1cccc(-c2noc(-c3ccccc3F)n2)c1` [ataluren, Ataluren]: the ataluren loss in series [1] is 34.4%; in series [3] (NADPH fortified HLM, 1, 10 and 100 µmol/L, up to 120 minutes) it was “no ataluren loss was observed”; in series [3] (UDPGA fortified HLM, 1 µmol/L, 120 minutes, n = 3), 32%; in series [3] (UDPGA fortified HLM, 10 µmol/L, 120 minutes, n = 3), 31%; in series [3] (UDPGA fortified HLM, 100 µmol/L, 120 minutes, n = 3), 18%. Further, the “Vehicle control %, Mean” value was determined as 100% in the series with CYP2C9 (4 µM) and 146% with CYP2C9 (400 µM). Also, the “induction over vehicle control, CYP2C9 activity” value in the series with CYP2C9 (hepatocytes, 400 µmol/L) is listed as ~1.5 fold. For the same compound, the “free Cmax at the steady state” value in series [2] (conservative, assuming free fraction value of 1%) was ~800 nM; in series [2] (using free fraction value of 0.4% as measured) it was “around 0.32 µmol/L”.
